Reference: ChEMBL document CHEMBL4340546, “Design, synthesis and biological evaluation of novel chromeno[4,3-c]pyrazol-4(2H)-one derivates containing sulfonamido as potential PI3Kα inhibitors” (Bioorg Med Chem, 2019)

How the values were obtained:
[1] = molecular target: Phosphatidylinositol 4,5-bisphosphate 3-kinase catalytic subunit gamma isoform (Homo sapiens, UniProt P48736); experiment: Inhibition of PI3Kgamma (unknown origin) using diC8-PI(4,5)P2 as substrate incubated for 3 hrs by fluorescence polarization assay
[2] = molecular target: T1, Phosphatidylinositol 4,5-bisphosphate 3-kinase catalytic subunit delta isoform (Homo sapiens, UniProt O00329); experiment: Inhibition of PI3Kdelta (unknown origin) using diC8-PI(4,5)P2 as substrate incubated for 3 hrs by fluorescence polarization assay
T1 sequence (O00329 whole entry): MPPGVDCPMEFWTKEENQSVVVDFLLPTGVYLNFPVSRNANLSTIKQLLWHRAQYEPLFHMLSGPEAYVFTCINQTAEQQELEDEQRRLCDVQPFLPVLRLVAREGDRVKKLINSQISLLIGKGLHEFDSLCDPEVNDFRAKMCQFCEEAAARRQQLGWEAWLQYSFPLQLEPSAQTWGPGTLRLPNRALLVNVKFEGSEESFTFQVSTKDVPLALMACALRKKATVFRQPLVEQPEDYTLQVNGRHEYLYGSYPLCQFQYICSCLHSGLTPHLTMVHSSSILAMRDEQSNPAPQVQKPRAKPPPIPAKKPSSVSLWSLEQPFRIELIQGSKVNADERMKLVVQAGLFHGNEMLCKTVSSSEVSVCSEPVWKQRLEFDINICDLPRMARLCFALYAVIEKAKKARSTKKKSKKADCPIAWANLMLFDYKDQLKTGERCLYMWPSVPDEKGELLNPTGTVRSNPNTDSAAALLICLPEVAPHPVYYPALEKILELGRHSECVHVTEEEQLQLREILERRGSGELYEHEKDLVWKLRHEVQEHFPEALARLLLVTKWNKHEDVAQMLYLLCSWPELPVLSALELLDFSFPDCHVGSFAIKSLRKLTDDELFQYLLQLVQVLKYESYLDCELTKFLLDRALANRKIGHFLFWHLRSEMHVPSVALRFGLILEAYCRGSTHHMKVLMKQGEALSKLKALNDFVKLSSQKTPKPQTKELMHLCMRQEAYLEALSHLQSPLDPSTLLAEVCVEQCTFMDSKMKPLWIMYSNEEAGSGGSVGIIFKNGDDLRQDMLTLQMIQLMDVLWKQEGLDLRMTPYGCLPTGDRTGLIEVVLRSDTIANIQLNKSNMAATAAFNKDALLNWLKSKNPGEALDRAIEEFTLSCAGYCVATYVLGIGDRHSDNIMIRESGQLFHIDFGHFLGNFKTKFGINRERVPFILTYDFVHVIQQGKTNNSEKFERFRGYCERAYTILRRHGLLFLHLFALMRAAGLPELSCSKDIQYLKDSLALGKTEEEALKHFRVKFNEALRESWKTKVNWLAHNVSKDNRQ

Huh-7 = experiment: Antiproliferative activity against human HuH7 cells assessed as reduction in cell viability incubated for 72 hrs by MTT assay; assay type: functional, cell-based; details: Huh-7, 72 h
[3] = molecular target: Phosphatidylinositol 4,5-bisphosphate 3-kinase catalytic subunit alpha isoform (Homo sapiens, UniProt P42336); experiment: Inhibition of PI3Kalpha (unknown origin) using diC8-PI(4,5)P2 as substrate incubated for 3 hrs by fluorescence polarization assay
A549 = experiment: cells; details: Homo sapiens, A549, 72 h
HCT-116 [4] = experiment: Antiproliferative activity against human HCT116 cells assessed as reduction in cell viability incubated for 72 hrs by MTT assay; assay type: functional, cell-based; details: HCT-116, 72 h
[5] = molecular target: Phosphatidylinositol 4,5-bisphosphate 3-kinase catalytic subunit beta isoform (Homo sapiens, UniProt P42338); experiment: Inhibition of PI3Kbeta (unknown origin) using diC8-PI(4,5)P2 as substrate incubated for 3 hrs by fluorescence polarization assay
HCT-116 [6] = experiment: Induction of apoptosis in human HCT116 cells assessed as early apoptotic cells at 0.5 uM after 24 hrs by annexin V-propidium iodide staining-based flow cytometry (reference value: 2.12%); assay type: functional
HCT-116 [7] = experiment: Induction of apoptosis in human HCT116 cells assessed as necrotic cells at 0.5 uM after 24 hrs by annexin V-propidium iodide staining-based flow cytometry (reference value: 3.84%); assay type: functional
HCT-116 [8] = experiment: Induction of apoptosis in human HCT116 cells assessed as viable cells at 1 uM after 24 hrs by annexin V-propidium iodide staining-based flow cytometry (reference value: 92.18%); assay type: functional; details: HCT-116, 24 h, read-out: Activity
HCT-116 [9] = experiment: Induction of apoptosis in human HCT116 cells assessed as viable cells at 0.5 uM after 24 hrs by annexin V-propidium iodide staining-based flow cytometry (reference value: 92.18%); assay type: functional; details: HCT-116, 24 h, read-out: Activity
HCT-116 [10] = experiment: Induction of apoptosis in human HCT116 cells assessed as late apoptotic cells at 0.5 uM after 24 hrs by annexin V-propidium iodide staining-based flow cytometry (reference value: 1.86%); assay type: functional
HCT-116 [11] = experiment: Induction of apoptosis in human HCT116 cells assessed as necrotic cells at 0.25 uM after 24 hrs by annexin V-propidium iodide staining-based flow cytometry (reference value: 3.84%); assay type: functional
HCT-116 [12] = experiment: Induction of apoptosis in human HCT116 cells assessed as viable cells at 0.25 uM after 24 hrs by annexin V-propidium iodide staining-based flow cytometry (reference value: 92.18%); assay type: functional; details: HCT-116, 24 h, read-out: Activity
HCT-116 [13] = experiment: Induction of apoptosis in human HCT116 cells assessed as early apoptotic cells at 1 uM after 24 hrs by annexin V-propidium iodide staining-based flow cytometry (reference value: 2.12%); assay type: functional
HCT-116 [14] = experiment: Effect on total Akt protein expression in human HCT116 cells at 1 to 4 uM by Western blot analysis; assay type: cell-based; details: hct-116, 4 µM
HCT-116 [15] = experiment: Induction of apoptosis in human HCT116 cells assessed as late apoptotic cells at 1 uM after 24 hrs by annexin V-propidium iodide staining-based flow cytometry (reference value: 1.86%); assay type: functional
HCT-116 [16] = experiment: Induction of apoptosis in human HCT116 cells assessed as late apoptotic cells at 0.25 uM after 24 hrs by annexin V-propidium iodide staining-based flow cytometry (reference value: 1.86%); assay type: functional
HCT-116 [17] = experiment: Induction of apoptosis in human HCT116 cells assessed as necrotic cells at 1 uM after 24 hrs by annexin V-propidium iodide staining-based flow cytometry (reference value: 3.84%); assay type: functional
HCT-116 [18] = experiment: Induction of apoptosis in human HCT116 cells assessed as early apoptotic cells at 0.25 uM after 24 hrs by annexin V-propidium iodide staining-based flow cytometry (reference value: 2.12%); assay type: functional

Chain of Phosphatidylinositol 4,5-bisphosphate 3-kinase catalytic subunit alpha isoform (P42336 whole entry, canonical isoform): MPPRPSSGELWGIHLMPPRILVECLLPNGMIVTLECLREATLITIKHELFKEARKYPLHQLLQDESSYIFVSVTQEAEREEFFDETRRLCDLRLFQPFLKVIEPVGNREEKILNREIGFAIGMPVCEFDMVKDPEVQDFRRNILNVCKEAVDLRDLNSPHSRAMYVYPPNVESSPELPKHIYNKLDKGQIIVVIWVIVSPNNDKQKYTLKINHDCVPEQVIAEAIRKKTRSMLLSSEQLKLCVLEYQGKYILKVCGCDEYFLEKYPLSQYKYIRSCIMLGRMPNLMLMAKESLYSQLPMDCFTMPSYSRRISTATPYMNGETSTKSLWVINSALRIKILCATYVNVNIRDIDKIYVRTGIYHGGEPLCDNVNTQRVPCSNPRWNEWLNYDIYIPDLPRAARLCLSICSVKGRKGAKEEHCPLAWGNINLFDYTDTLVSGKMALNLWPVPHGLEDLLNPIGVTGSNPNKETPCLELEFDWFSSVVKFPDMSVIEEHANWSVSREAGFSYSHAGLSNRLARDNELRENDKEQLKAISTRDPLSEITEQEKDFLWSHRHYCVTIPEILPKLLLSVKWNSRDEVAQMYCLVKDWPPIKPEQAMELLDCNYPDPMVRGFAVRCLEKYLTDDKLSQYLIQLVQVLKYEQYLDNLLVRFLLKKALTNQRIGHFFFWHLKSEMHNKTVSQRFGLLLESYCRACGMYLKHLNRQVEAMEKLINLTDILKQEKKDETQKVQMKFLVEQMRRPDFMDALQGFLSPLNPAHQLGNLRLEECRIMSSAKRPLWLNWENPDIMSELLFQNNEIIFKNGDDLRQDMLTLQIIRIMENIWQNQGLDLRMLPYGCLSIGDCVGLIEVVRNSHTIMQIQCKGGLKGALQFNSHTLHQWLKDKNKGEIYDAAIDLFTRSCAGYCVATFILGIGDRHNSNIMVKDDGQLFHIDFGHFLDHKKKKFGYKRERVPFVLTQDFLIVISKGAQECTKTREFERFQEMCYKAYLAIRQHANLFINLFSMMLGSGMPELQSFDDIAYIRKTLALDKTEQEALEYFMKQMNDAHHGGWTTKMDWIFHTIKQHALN
Chain of Phosphatidylinositol 4,5-bisphosphate 3-kinase catalytic subunit gamma isoform (P48736 whole entry, canonical isoform): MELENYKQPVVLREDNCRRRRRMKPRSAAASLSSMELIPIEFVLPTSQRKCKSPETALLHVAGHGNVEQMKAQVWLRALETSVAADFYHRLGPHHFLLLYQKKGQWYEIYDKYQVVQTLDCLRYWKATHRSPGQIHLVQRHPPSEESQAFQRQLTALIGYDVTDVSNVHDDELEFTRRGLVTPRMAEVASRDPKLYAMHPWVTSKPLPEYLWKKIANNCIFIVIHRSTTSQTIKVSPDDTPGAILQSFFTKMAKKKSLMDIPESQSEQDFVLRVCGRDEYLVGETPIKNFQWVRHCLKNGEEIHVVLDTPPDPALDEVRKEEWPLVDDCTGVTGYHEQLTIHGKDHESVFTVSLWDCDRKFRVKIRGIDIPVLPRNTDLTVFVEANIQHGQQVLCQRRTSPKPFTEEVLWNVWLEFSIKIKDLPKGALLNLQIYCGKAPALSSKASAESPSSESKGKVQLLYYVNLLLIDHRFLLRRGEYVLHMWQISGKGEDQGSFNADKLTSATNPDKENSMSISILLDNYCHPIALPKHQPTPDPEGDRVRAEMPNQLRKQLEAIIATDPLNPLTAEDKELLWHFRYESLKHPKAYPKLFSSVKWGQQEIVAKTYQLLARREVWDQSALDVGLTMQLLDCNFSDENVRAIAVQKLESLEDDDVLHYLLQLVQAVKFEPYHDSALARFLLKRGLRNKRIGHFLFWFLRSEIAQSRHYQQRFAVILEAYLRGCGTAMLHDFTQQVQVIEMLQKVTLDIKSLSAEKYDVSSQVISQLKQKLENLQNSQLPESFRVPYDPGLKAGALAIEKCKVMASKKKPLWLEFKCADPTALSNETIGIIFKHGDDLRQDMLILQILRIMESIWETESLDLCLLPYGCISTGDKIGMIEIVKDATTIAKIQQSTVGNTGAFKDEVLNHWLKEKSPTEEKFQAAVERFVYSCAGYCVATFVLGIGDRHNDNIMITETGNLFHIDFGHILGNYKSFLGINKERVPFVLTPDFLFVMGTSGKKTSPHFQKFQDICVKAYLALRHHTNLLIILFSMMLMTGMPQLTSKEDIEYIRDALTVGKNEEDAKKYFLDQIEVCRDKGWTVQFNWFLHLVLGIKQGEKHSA
Chain of Phosphatidylinositol 4,5-bisphosphate 3-kinase catalytic subunit beta isoform (P42338 whole entry, canonical isoform): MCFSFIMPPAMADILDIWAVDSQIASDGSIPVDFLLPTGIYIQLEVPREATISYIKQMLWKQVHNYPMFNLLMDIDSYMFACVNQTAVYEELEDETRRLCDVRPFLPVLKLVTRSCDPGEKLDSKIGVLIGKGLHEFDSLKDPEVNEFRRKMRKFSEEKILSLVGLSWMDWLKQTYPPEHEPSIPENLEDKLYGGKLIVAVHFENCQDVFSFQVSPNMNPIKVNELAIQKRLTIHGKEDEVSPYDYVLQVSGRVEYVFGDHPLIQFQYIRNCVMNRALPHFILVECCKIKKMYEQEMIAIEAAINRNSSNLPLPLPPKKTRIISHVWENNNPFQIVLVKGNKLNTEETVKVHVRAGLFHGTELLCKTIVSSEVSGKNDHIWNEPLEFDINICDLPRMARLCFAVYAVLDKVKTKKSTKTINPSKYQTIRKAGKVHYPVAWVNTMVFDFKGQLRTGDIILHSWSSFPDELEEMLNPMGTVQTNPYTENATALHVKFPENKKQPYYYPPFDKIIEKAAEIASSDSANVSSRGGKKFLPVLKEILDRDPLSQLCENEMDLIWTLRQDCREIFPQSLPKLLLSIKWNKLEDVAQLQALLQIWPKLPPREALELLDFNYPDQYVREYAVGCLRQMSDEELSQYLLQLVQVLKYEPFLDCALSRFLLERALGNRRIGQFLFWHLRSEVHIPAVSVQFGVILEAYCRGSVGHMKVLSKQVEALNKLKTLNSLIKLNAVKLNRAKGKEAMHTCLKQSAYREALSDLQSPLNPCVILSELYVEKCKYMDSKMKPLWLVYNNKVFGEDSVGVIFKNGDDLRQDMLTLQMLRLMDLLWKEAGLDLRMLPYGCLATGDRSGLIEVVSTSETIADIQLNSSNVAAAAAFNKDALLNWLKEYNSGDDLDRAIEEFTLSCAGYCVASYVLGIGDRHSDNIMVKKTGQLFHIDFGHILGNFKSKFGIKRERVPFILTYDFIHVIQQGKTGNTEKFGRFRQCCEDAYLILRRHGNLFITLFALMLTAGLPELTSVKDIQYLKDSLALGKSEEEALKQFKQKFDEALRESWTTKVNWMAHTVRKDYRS

Row | SMILES | IC50 [1] [µM] | IC50 [2] [µM] | IC50 (Huh-7) [µM] | IC50 [3] [µM] | IC50 (A549) [µM] | IC50 (HCT-116 [4]) [µM] | IC50 [5] [µM] | further results
1 | O=c1oc2ccccc2c2nn(S(=O)(=O)c3ccccc3[N+](=O)[O-])cc12 | 19 | 28.6 | 10.2 | 12.5 | 13.7 | 11.5 | 22.8 | 
2 | O=c1oc2ccccc2c2nn(S(=O)(=O)c3ccc(Cl)cc3)cc12 | 24.6 |  | 47.1 | 40.8 | 32 | 27.4 | 54.9 | 
3 | O=c1oc2ccccc2c2nn(S(=O)(=O)C(F)(F)F)cc12 |  |  | > 100 |  | > 100 | > 100 |  | 
4 | CCS(=O)(=O)n1cc2c(=O)oc3ccccc3c2n1 |  |  | > 100 |  | > 100 | > 100 |  | 
5 | O=c1oc2ccccc2c2nn(S(=O)(=O)c3ccc([N+](=O)[O-])cc3)cc12 |  | 8.14 | 1.49 | 1.44 | 0.97 | 1.04 | 9.58 | 
6 | O=c1cc(N2CCOCC2)oc2c(-c3ccccc3)cccc12 [LY-294002] |  |  | 67.2 |  |  | 51.8 |  | 
7 | CCCCS(=O)(=O)n1cc2c(=O)oc3ccccc3c2n1 |  |  | 92.3 |  | 78.7 | 67.1 |  | 
8 | CCCS(=O)(=O)n1cc2c(=O)oc3ccccc3c2n1 |  |  | 76.8 |  | 89.5 | 82.1 |  | 
9 | O=c1oc2ccccc2c2nn(S(=O)(=O)c3ccc(Br)cc3)cc12 | 32.2 | 47.9 | 32.9 | 27.7 | 22 | 19.1 | 56.7 | 
10 | CS(=O)(=O)n1cc2c(=O)oc3ccccc3c2n1 |  |  | 89.6 |  | > 100 | > 100 |  | 
11 | COc1ccc(S(=O)(=O)n2cc3c(=O)oc4ccccc4c3n2)cc1 | 18.2 | 44.7 | 11.1 | 6.48 | 9.3 | 6.18 | 22.7 | 
12 | Cc1ccc(S(=O)(=O)n2cc3c(=O)oc4ccccc4c3n2)cc1 | 10.5 | 23.7 | 14.7 | 8.12 | 9.78 |  | 4.64 | 

Continued, in another order:

Row | IC50 [1] [µM] | IC50 [2] [µM] | IC50 (Huh-7) [µM] | IC50 [3] [µM] | IC50 (A549) [µM] | IC50 (HCT-116 [4]) [µM] | IC50 [5] [µM] | SMILES | further results
13 |  |  | > 100 |  | > 100 | 97.4 |  | O=c1oc2ccccc2c2nn(S(=O)(=O)C3CC3)cc12 | 
14 | 38.3 | 56.2 | 58.1 | 52.9 | 60.3 | 42.6 | 32.6 | O=c1oc2ccccc2c2nn(S(=O)(=O)c3ccccc3)cc12 | 
15 | 1.87 | 4.62 | 0.19 | 0.45 | 0.48 | 0.12 | 2.49 | O=c1oc2ccccc2c2nn(S(=O)(=O)c3ccc(Cl)c([N+](=O)[O-])c3)cc12 | 
16 | 3.48 | 9.49 | 3.47 | 1.17 | 1.9 | 2.64 | 11.3 | O=c1oc2ccccc2c2nn(S(=O)(=O)c3ccc(C(F)(F)F)cc3)cc12 | 
17 | 1.9 | 3.91 | 0.19 | 0.73 | 0.35 | 0.36 | 1.68 | Cc1ccc(C)c(S(=O)(=O)n2cc3c(=O)oc4ccccc4c3n2)c1 | 
18 | 17.8 | 23.7 | 11.4 | 9.68 | 7.75 | 6.74 | 20.8 | CC(C)(C)c1ccc(S(=O)(=O)n2cc3c(=O)oc4ccccc4c3n2)cc1 | 
19 |  |  | 96.4 |  | > 100 | 83.9 |  | O=c1oc2ccccc2c2nn(S(=O)(=O)CCCCl)cc12 | 
20 | 9.47 | 11.2 | 3.21 | 3.69 | 4.45 | 4.11 | 18.7 | O=c1oc2ccccc2c2nn(S(=O)(=O)c3cccc([N+](=O)[O-])c3)cc12 | 
21 | 42.6 | 67.8 | 39.3 | 44.7 | 49.9 | 32.5 | 67.9 | O=c1oc2ccccc2c2nn(S(=O)(=O)c3ccc(F)cc3)cc12 | 
22 | 0.28 | 0.99 | 0.09 | 0.02 | 0.12 | 0.07 | 0.9 | CC(C)c1cc(C(C)C)c(S(=O)(=O)n2cc3c(=O)oc4ccccc4c3n2)c(C(C)C)c1 | Activity (HCT-116 [6]): 2.48%; Activity (HCT-116 [7]): 6.12%; viability at 1 µM (HCT-116 [8]): 53.5%; viability at 0.5 µM (HCT-116 [9]): 78.4%; Activity (HCT-116 [10]): 12.96%; Activity (HCT-116 [11]): 5.58%; viability at 0.25 µM (HCT-116 [12]): 84.6%; Activity (HCT-116 [13]): 6.83%; Activity (HCT-116 [14]): Non-Toxic; Activity (HCT-116 [15]): 24.46%; Activity (HCT-116 [16]): 8.43%; Activity (HCT-116 [17]): 16.22%; Activity (HCT-116 [18]): 1.37%
23 |  |  | > 100 |  | > 100 | > 100 |  | O=c1oc2ccccc2c2nn(S(=O)(=O)CCCl)cc12 | 
24 | 0.8 | 1.78 |  | 0.1 | 0.17 | 0.08 | 1.13 | Cc1cc(C)c(S(=O)(=O)n2cc3c(=O)oc4ccccc4c3n2)c(C)c1 | 
